How the values were obtained:
[1] = molecular target: T1, FXR (Homo sapiens, UniProt Q96RI1); assay: FXR antagonist screening by TR-FRET (LanthaScreen TR-FRET FXR co-activation assay kit); format: biochemical; conditions: TR-FRET with CDCA, geometric means of at least two independent runs
T1 construct: 5 μL of 20 nM FXR-LBD Complete Coregulator buffer G; purchased ThermoFisher PV4833
T1 sequence (Q96RI1 262-486 limits assumed): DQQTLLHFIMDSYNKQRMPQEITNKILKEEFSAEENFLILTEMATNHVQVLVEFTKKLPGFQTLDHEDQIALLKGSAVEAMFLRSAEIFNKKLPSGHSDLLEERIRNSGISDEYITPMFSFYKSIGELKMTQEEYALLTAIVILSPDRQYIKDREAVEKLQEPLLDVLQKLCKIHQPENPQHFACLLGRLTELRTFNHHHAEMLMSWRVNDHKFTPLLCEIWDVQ
Procedure, shortened: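 FXR-LBD (20 nM working solution) mixed with compound, CDCA (200 μM working solution) as agonist, Fluorescein-SRC2-2 and Tb-anti-GST antibody in Coregulator buffer G; 10 h at room temperature. Coactivator recruitment read by TR-FRET, triplicate wells.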

[2] = Table 1.1, FXR antagonistic activity
[3] = Table 1.2, FXR antagonistic activity

Compound | IC50 [1, 2] [µM] | melting point | IC50 [1, 3] [µM]
Cc1c(C(=O)O)oc2ccc(S(=O)(=O)N(CCc3ccccc3)Cc3ccccc3F)cc12 [Example F27-S14, 3-methyl-5-(N-(2-fluorobenzyl)-N-phenethylsulfamoyl)benzofuran-2-carboxylic acid] | 0.1 to 10 | > 380 °C (dec.) | 
Cc1c(C(=O)O)oc2ccc(S(=O)(=O)N(CCc3ccccc3)Cc3ccccc3Cl)cc12 [Example F27-S15, 3-methyl-5-(N-(2-chlorobenzyl)-N-phenethylsulfamoyl)benzofuran-2-carboxylic acid] | 10 to 50 | 156 to 157 °C | 
Cc1c(C(=O)O)oc2ccc(S(=O)(=O)N(CCc3ccccc3)Cc3ccccc3Br)cc12 [Example F27-S16, 3-methyl-5-(N-(2-bromobenzyl)-N-phenethylsulfamoyl)benzofuran-2-carboxylic acid] | 10 to 50 | 170 to 171 °C | 
Cc1ccccc1CN(CCc1ccccc1)S(=O)(=O)c1ccc2oc(C(=O)O)c(C)c2c1 [Example F27-S17, 3-methyl-5-(N-(2-methylbenzyl)-N-phenethylsulfamoyl)benzofuran-2-carboxylic acid] | 10 to 50 | 199 to 200 °C | 
Cc1c(C(=O)O)oc2ccc(S(=O)(=O)N(CCc3ccccc3)Cc3ccccc3C(F)(F)F)cc12 [Example F27-S18, 3-methyl-5-(N-(2-trifluoromethylbenzyl)-N-phenethylsulfamoyl)benzofuran-2-carboxylic acid] | 10 to 50 | 138 to 139 °C | 
Cc1c(C(=O)O)oc2ccc(S(=O)(=O)N(CCc3ccccc3)Cc3ccccc3[N+](=O)[O-])cc12 [Example F27-S19, 3-methyl-5-(N-(2-nitrobenzyl)-N-phenethylsulfamoyl)benzofuran-2-carboxylic acid] | 10 to 50 | 180 to 181 °C | 
Cc1c(C(=O)O)oc2ccc(S(=O)(=O)N(CCc3ccccc3)Cc3cccc(F)c3)cc12 [Example F27-S20, 3-methyl-5-(N-(3-fluorobenzyl)-N-phenethylsulfamoyl)benzofuran-2-carboxylic acid] | 10 to 50 | > 380 °C (dec.) | 
Cc1c(C(=O)O)oc2ccc(S(=O)(=O)N(CCc3ccccc3)Cc3cccc(Cl)c3)cc12 [Example F27-S21, 3-methyl-5-(N-(3-chlorobenzyl)-N-phenethylsulfamoyl)benzofuran-2-carboxylic acid] | 10 to 50 | > 380 °C (dec.) | 
Cc1c(C(=O)O)oc2ccc(S(=O)(=O)N(CCc3ccccc3)Cc3cccc(Br)c3)cc12 [Example F27-S22, 3-methyl-5-(N-(3-bromobenzyl)-N-phenethylsulfamoyl)benzofuran-2-carboxylic acid] | 10 to 50 | > 380 °C (dec.) | 
Cc1cccc(CN(CCc2ccccc2)S(=O)(=O)c2ccc3oc(C(=O)O)c(C)c3c2)c1 [Example F27-S23, 3-methyl-5-(N-(3-methylbenzyl)-N-phenethylsulfamoyl)benzofuran-2-carboxylic acid] | 10 to 50 | > 380 °C (dec.) | 
Cc1c(C(=O)O)oc2ccc(S(=O)(=O)N(CCc3ccccc3)Cc3cccc(C(F)(F)F)c3)cc12 [Example F27-S24, 3-methyl-5-(N-(3-trifluoromethylbenzyl)-N-phenethylsulfamoyl)benzofuran-2-carboxylic acid] | 50 to 100 | 188 to 189 °C | 
CCOC(=O)c1sc2ccc(S(=O)(=O)N(CCc3ccc(C)cc3)c3ccccc3N3CCN(C(=O)c4sccc4Br)CC3)cc2c1C [Example M10-166, Ethyl 5-(N-(2-(4-(3-bromothiophene-2-carbonyl)piperazin-1-yl)phenyl)-N-(4-methylphenylethyl)sulfamoyl)-3-methylbenzothiophene-2-carboxylate] |  |  | 50 to 100
CCOC(=O)c1sc2ccc(S(=O)(=O)N(CCc3ccc(C(=O)OC)cc3)c3ccccc3N3CCN(C(=O)c4sccc4Br)CC3)cc2c1C [Example M10-167, ethyl 5-(N-(2-(4-(3-bromothiophene-2-carbonyl)piperazin-1-yl)phenyl)-N-(4-(methoxycarbonyl)phenethyl)sulfamoyl)-3-methylbenzothiophene-2-carboxylate] |  |  | 50 to 100
CCOC(=O)c1sc2ccc(S(=O)(=O)N(CCc3ccc(C#N)cc3)c3ccccc3N3CCN(C(=O)c4sccc4Br)CC3)cc2c1C [Example M10-168] |  |  | 50 to 100
CCOC(=O)c1sc2ccc(S(=O)(=O)N(CCc3ccc(C(F)(F)F)cc3)c3ccccc3N3CCN(C(=O)c4sccc4Br)CC3)cc2c1C [Example M10-169, Ethyl 5-(N-(2-(4-(3-bromothiophene-2-carbonyl)piperazin-1-yl)phenyl)-N-(4-(trifluoromethyl)phenethyl)sulfamoyl)-3-methylbenzothiophene-2-carboxylate] |  |  | 50 to 100
CCOC(=O)c1sc2ccc(S(=O)(=O)N(CCc3cccc(OC)c3)c3ccccc3N3CCN(C(=O)c4sccc4Br)CC3)cc2c1C [Example M10-170, Ethyl 5-(N-(2-(4-(3-bromothiophene-2-carbonyl)piperazin-1-yl)phenyl)-N-(3-methoxyphenethyl)sulfamoyl)-3-methylbenzothiophene-2-carboxylate] |  |  | 50 to 100
CCOC(=O)c1sc2ccc(S(=O)(=O)N(CCc3cccc(Cl)c3)c3ccccc3N3CCN(C(=O)c4sccc4Br)CC3)cc2c1C [Example M10-171, Ethyl 5-(N-(2-(4-(3-bromothiophene-2-carbonyl)piperazin-1-yl)phenyl)-N-(3-chlorophenylethyl)sulfamoyl)-3-methylbenzothiophene-2-carboxylate] |  |  | 50 to 100
CCOC(=O)c1sc2ccc(S(=O)(=O)N(CCc3ccccc3Cl)c3ccccc3N3CCN(C(=O)c4sccc4Br)CC3)cc2c1C [Example M10-172, Ethyl 5-(N-(2-(4-(3-bromothiophene-2-carbonyl)piperazin-1-yl)phenyl)-N-(2-chlorophenylethyl)sulfamoyl)-3-methylbenzothiophene-2-carboxylate] |  |  | 50 to 100
CCOC(=O)c1sc2ccc(S(=O)(=O)N(CCc3ccccc3OC)c3ccccc3N3CCN(C(=O)c4sccc4Br)CC3)cc2c1C [Example M10-173, Ethyl 5-(N-(2-(4-(3-bromothiophene-2-carbonyl)piperazin-1-yl)phenyl)-N-(2-methoxyphenethyl)sulfamoyl)-3-methylbenzothiophene-2-carboxylate] |  |  | 50 to 100
CCOC(=O)c1sc2ccc(S(=O)(=O)N(CCc3ccccc3[N+](=O)[O-])c3ccccc3N3CCN(C(=O)c4sccc4Br)CC3)cc2c1C [Example M10-174] |  |  | 50 to 100
CCOC(=O)c1sc2ccc(S(=O)(=O)N(CCCc3ccccc3)c3ccccc3N3CCN(C(=O)c4sccc4Br)CC3)cc2c1C [Example M10-175, ethyl 5-(N-(2-(4-(3-bromothiophene-2-carbonyl)piperazin-1-yl)phenyl)-N-(3-phenylpropyl)sulfamoyl)-3-methylbenzothiophene-2-carboxylate] |  |  | 50 to 100
CCOC(=O)c1sc2ccc(S(=O)(=O)Nc3ccccc3N3CCN(C(=O)c4sccc4Br)CC3)cc2c1C [Example M10-176, Ethyl 5-(N-(2-(4-(3-bromothiophene-2-carbonyl)piperazin-1-yl)phenyl)sulfamoyl)-3-toluothiophene-2-carboxylate] |  |  | 50 to 100
CCOC(=O)c1sc2ccc(S(=O)(=O)N(CCc3ccc(OC)cc3)c3ccccc3N3CCN(C(=O)c4sccc4Br)CC3)cc2c1C [Example M10-177, Ethyl 5-(N-(2-(4-(3-bromothiophene-2-formyl)piperazin-1-yl)phenyl)-N-(4-methoxyphenethyl)sulfamoyl)3-methylbenzothiophene-2-carboxylate] |  |  | 50 to 100
CCOC(=O)c1c(C)c2cc(S(=O)(=O)N(CCc3ccccc3)c3ccccc3N3CCN(C(=O)c4sccc4Br)CC3)ccc2n1C [Example M10-179, Ethyl 5-(N-(2-(4-(3-bromothiophene-2-carbonyl)piperazin-1-yl)phenyl)-N-phenethylsulfamoyl)-1,3-dimethyl-1H-indole-2-carboxylate] |  |  | 50 to 100
CCOC(=O)c1sc2ccc(S(=O)(=O)N(CCC3CCCCC3)c3ccccc3N3CCN(C(=O)c4sccc4Br)CC3)cc2c1C [Example M10-180, Ethyl 5-(N-(2-(4-(3-bromothiophene-2-carbonyl)piperazin-1-yl)phenyl)-N-(2-cyclohexylethyl)sulfamoyl)-3-methylbenzothiophene-2-carboxylate] |  |  | 50 to 100
CCOC(=O)c1sc2ccc(S(=O)(=O)N(Cc3ccccc3)c3ccccc3N3CCN(C(=O)c4sccc4Br)CC3)cc2c1C [Example M10-181, Ethyl 5-(N-benzyl-N-(2-(4-(3-bromothiophene-2-carbonyl)piperazin-1-yl)phenyl)sulfamoyl)-3-methylbenzothiophene-2-carboxylate] |  |  | 50 to 100
CCOC(=O)c1sc2ccc(S(=O)(=O)N(C)c3ccccc3N3CCN(C(=O)c4sccc4Br)CC3)cc2c1C [Example M10-182, Ethyl 5-(N-(2-(4-(3-bromothiophene-2-carbonyl)piperazin-1-yl)phenyl)-N-methylsulfamoyl)-3-methylbenzothiophene-2-carboxylate] |  |  | 50 to 100
CCOC(=O)c1sc2ccc(S(=O)(=O)N(CCc3cccs3)c3ccccc3N3CCN(C(=O)c4sccc4Br)CC3)cc2c1C [Example M10-183, Ethyl 5-(N-(2-(4-(3-bromothiophene-2-carbonyl)piperazin-1-yl)phenyl)-N-(2-(thiophen-2-yl)ethyl)sulfamoyl)-3-methylbenzothiophene-2-carboxylate] |  |  | 50 to 100

From US20240239775A1, “FXR REGULATOR, PREPARATION METHOD THEREFOR, PHARMACEUTICAL COMPOSITION THEREOF AND USE THEREOF” (QINGDAO RUIJI MEDICAL TECHNOLOGY CO., LTD., priority 2021, published 2024)
